This is an account of results in the NIST ThermoML archive (doi:10.1016/j.jct.2011.12.005).

Numbers after ± are expanded uncertainties.

The conditions of data set [1]: for Normal melting temperature: Crystal, DTA.
The nature of data set [2]: Molar enthalpy of transition or fusion.
[3] abbreviates: Crystal 2, Differential scanning calorimeter.

In the case of `COc1cc(C(=O)O)ccc1O` [4-hydroxy-3-methoxybenzoic acid], the Normal melting temperature in data set [1] was 207.6 ± 0.5 °C. Moreover, in data set [2] (Crystal, DSC), the “Molar enthalpy of transition or fusion” value was 6.96 ± 0.191 kcal/mol.
As for `Cc1ccc(C(C)C)c(O)c1` [3-methyl-6-isopropylphenol], the Normal melting temperature in data set [1] is 49 ± 0.4 °C. Moreover, the “Molar enthalpy of transition or fusion” value in data set [2] (Crystal, DSC) was 4.16 ± 0.12 kcal/mol.
In the case of `COc1cc(C=CC(=O)O)ccc1O` [4-hydroxy-3-methoxycinnamic acid], in data set [1], the Normal melting temperature was 171.8 ± 0.9 °C. The “Molar enthalpy of transition or fusion” value in data set [2] (Crystal, DSC) was found to be 7.62 ± 0.215 kcal/mol.
Regarding `Cn1c(=O)c2c(ncn2C)n(C)c1=O` [caffeine], in data set [1] (setting [3]), the Triple point temperature worked out at 405.8 K. Moreover, the Normal melting temperature in data set [1] was 232.2 ± 0.5 °C. The “Molar enthalpy of transition or fusion” value was determined as 0.621 kcal/mol in data set [2] (setting [3]) and 4.28 ± 0.143 kcal/mol in data set [2] (Crystal, DSC).
